A value given as a limit tells only on which side of the number the result lay.

This assay deals with H1047R PIK3CA enzyme (Homo sapiens, UniProt P42336, H1047R). As to the kind of experiment: ADP-Glo Biochemical PIK3CA Kinase Assay.
Chain of H1047R PIK3CA enzyme (P42336 whole entry H1047R): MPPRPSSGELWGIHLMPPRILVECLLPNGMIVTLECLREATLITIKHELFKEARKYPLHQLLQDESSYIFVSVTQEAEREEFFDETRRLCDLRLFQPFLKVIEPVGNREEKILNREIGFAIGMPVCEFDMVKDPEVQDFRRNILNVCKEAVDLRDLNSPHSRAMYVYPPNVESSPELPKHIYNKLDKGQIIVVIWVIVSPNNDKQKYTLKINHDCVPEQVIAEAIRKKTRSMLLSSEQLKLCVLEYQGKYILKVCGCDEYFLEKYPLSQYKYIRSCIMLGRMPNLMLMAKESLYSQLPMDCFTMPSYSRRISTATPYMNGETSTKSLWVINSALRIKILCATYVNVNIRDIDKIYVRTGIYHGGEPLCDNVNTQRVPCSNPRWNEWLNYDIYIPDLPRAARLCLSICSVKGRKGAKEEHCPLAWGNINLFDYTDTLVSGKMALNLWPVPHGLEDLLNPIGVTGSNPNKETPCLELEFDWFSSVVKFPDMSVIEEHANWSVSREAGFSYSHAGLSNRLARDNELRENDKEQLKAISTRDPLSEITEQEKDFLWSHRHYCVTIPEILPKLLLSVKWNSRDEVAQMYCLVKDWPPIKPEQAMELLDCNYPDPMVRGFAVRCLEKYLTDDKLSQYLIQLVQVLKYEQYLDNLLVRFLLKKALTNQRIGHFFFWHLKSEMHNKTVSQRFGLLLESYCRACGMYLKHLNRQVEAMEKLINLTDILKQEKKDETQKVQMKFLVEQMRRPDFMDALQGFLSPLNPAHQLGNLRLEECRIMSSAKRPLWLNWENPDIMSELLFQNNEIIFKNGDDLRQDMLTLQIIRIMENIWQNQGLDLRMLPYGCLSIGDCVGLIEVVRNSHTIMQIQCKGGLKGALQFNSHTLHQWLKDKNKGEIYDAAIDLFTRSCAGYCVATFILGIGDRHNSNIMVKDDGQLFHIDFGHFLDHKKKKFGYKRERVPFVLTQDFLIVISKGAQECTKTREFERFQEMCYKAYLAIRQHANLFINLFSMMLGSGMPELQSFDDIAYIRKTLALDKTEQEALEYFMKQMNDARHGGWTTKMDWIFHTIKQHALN
Chain of H1047R PIK3CA enzyme (P27986 whole entry partner): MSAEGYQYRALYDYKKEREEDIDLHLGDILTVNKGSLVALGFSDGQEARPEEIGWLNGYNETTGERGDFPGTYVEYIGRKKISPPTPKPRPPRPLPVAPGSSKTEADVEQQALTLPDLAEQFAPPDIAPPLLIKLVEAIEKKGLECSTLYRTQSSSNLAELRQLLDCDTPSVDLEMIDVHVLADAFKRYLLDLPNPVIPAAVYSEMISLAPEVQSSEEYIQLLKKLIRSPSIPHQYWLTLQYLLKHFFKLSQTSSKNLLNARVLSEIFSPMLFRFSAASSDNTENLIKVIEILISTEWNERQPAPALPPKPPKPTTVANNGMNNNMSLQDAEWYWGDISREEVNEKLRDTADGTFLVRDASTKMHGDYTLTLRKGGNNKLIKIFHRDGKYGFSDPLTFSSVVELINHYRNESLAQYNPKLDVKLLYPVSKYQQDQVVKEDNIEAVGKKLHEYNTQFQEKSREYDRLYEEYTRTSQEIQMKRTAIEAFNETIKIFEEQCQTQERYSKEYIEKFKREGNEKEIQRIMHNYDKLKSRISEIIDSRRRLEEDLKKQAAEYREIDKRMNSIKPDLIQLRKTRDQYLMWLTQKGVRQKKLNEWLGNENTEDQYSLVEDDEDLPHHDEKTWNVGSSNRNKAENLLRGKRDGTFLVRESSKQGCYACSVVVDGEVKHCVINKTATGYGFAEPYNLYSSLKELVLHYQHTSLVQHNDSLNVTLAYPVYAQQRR
In turn, `O=C(Nc1cc(Br)cc2c1[C@@H](c1cc(F)ccc1Cl)NC2=O)c1cc(F)cc(C(F)(F)F)c1` [Compound I-387] displayed an IC50 of 1000 to 10000 nM.
The same measure for `O=C(Nc1cc(NC(=O)C2CNC2)cc2c1C(c1cc(F)ccc1Cl)NC2=O)c1cc(F)cc(C(F)(F)F)c1` (stereo not shown) [Compound I-389]: 100 to 500 nM; for `O=C(Nc1cccc2c1C(c1cccc(F)c1)NC2=O)c1cc(F)cc(C(F)(F)F)c1` (stereo not shown) [Compound I-390]: 1000 to 10000 nM; for `Cc1ccccc1C1NC(=O)c2cccc(NC(=O)c3cc(F)cc(Br)c3)c21` (stereo not shown) [Compound I-391]: 500 to 1000 nM.
The same measure for `O=C1NC(c2ccc3ccccc3c2)c2c(NC(=O)c3nsc4ccccc34)cccc21` (stereo not shown) [Compound I-392]: 10000 to 100000 nM.
With `Nc1cc(NC(=O)c2cc(F)cc(C(F)(F)F)c2)c2c(c1)C(=O)NC2c1ccccc1Cl` (stereo not shown) [Compound I-393] the figure was ≤ 100 nM; with `O=C(Nc1cc(Br)cc2c1C(c1ccccc1Cl)NC2=O)c1cc(F)cc(C(F)(F)F)c1` (stereo not shown) [Compound I-394], 100 to 500 nM.
For `CP(C)(=O)c1cc(NC(=O)c2cc(F)cc(C(F)(F)F)c2)c2c(c1)C(=O)NC2c1cc(F)ccc1Cl` (stereo not shown) [Compound I-395], the IC50 is ≤ 100 nM.
The same measure for `Cc1ccccc1[C@H]1NC(=O)c2c(C#N)ccc(NC(=O)c3cc(F)cc(C(F)(F)F)c3)c21` [Compound I-397]: 100 to 500 nM; for `Cc1ccccc1C1NC(=O)c2cccc(-c3nnc(-c4ccccc4)[nH]3)c21` (stereo not shown) [Compound I-398]: 10000 to 100000 nM; for `O=C(O)Cc1cc(NC(=O)c2cc(F)cc(C(F)(F)F)c2)c2c(c1)C(=O)NC2c1cc(F)ccc1Cl` (stereo not shown) [Compound I-399]: ≤ 100 nM.
As for `Cc1ccccc1C1NC(=O)c2cccc(NC(=O)c3nnc4ccc(Cl)cn34)c21` (stereo not shown) [Compound I-400], the IC50 is 10000 to 100000 nM.
With `O=C(Nc1cccc2c1C(c1cc(Cl)cc(F)c1F)NC2=O)c1cc(F)cc(C(F)(F)F)c1` (stereo not shown) [Compound I-401] the figure was 100 to 500 nM; with `O=C1NCc2c(NC(=O)c3coc4ccc(Cl)cc34)cccc21` [Compound I-402], 10000 to 100000 nM; with `Cn1cc(C(=O)Nc2cccc3c2CNC3=O)c2ccccc21` [Compound I-403], 10000 to 100000 nM.
With `O=C1NCc2c(NC(=O)c3csc4c3CCCC4)cccc21` [Compound I-404] the figure was 10000 to 100000 nM.
On to `Cc1ccc2c(c1)N(C(=O)Nc1cccc3c1CN(C)C3=O)CC2` [Compound I-405], for which the IC50 was 10000 to 100000 nM.
The same measure for `C=CC(=O)Nc1cc(NC(=O)c2cc(F)cc(C(F)(F)F)c2)c2c(c1)C(=O)NC2c1cc(F)ccc1Cl` (stereo not shown) [Compound I-406]: ≤ 100 nM; for `O=C(CCl)Nc1cc(NC(=O)c2cc(F)cc(C(F)(F)F)c2)c2c(c1)C(=O)NC2c1cc(F)ccc1Cl` (stereo not shown) [Compound I-407]: ≤ 100 nM.
With `Cc1ccccc1C1NC(=O)c2cccc(NC(=O)c3cc(F)cc4c(C(=O)C(F)(F)F)c[nH]c34)c21` (stereo not shown) [Compound I-408] the figure was 10000 to 100000 nM.
As for `O=C(Nc1cccc2c1C(c1ccc(Br)cc1Cl)NC2=O)c1cc(F)cc(C(F)(F)F)c1` (stereo not shown) [Compound I-409], the IC50 lay in the range of 1000 to 10000 nM.
In the case of `Cc1nn(C)c(C)c1-c1cc(NC(=O)c2cc(F)cc(Cl)c2)c2c(n1)C(=O)NC2c1cc(F)ccc1Cl` (stereo not shown) [Compound I-410], the IC50 was 500 to 1000 nM.
With `Cc1ccccc1C1NC(=O)c2cccc(NC(=O)c3n[nH]cc3Br)c21` (stereo not shown) [Compound I-411] the figure was 10000 to 100000 nM; with `Cc1ccccc1C1NC(=O)c2cccc(NC(=O)c3n[nH]cc3-c3ccccc3)c21` (stereo not shown) [Compound I-412], 10000 to 100000 nM; with `Cc1ccccc1C1NC(=O)c2cccc(NC(=O)c3nscc3-c3ccccc3)c21` (stereo not shown) [Compound I-413], 1000 to 10000 nM.
The same measure for `O=C(Nc1cccc2c1C(c1cc(Br)ccc1Cl)NC2=O)c1cc(O)cc(C(F)(F)F)c1` (stereo not shown) [Compound I-414]: 100 to 500 nM.
With `O=C(Nc1cccc2c1C(c1cc(O)ccc1Cl)NC2=O)c1cc(O)cc(C(F)(F)F)c1` (stereo not shown) [Compound I-415] the figure was 10000 to 100000 nM.
Consider `NC1CN(c2cc(NC(=O)c3cc(F)cc(C(F)(F)F)c3)c3c(n2)C(=O)NC3c2cc(F)ccc2Cl)C1` (stereo not shown) [Compound I-417], for which the IC50 fell in the range of 100 to 500 nM.
The same measure for `CS(=O)(=O)C1CN(c2cc(NC(=O)c3cc(F)cc(C(F)(F)F)c3)c3c(n2)C(=O)NC3c2cc(F)ccc2Cl)C1` (stereo not shown) [Compound I-418]: 100 to 500 nM; for `Cc1ccccc1C1NC(=O)c2cc(C3(O)CCC3)cc(NC(=O)c3nsc4ccccc34)c21` (stereo not shown) [Compound I-419]: ≤ 100 nM.
On to `O=C(Nc1cc(C2COC2)cc2c1C(c1cc(F)ccc1Cl)NC2=O)c1cc(F)cc(C(F)(F)F)c1` (stereo not shown) [Compound I-420], for which the half-maximal inhibitory concentration (IC50) is ≤ 100 nM.
In the case of `O=C(Nc1cccc2c1C(c1ccc(-c3ccccc3)cc1Cl)NC2=O)c1cc(F)cc(C(F)(F)F)c1` (stereo not shown) [Compound I-421], the IC50 lay within 1000 to 10000 nM.
On to `N#Cc1ccc(C2NC(=O)c3cccc(NC(=O)c4cc(F)cc(C(F)(F)F)c4)c32)c(Cl)c1` (stereo not shown) [Compound I-422], for which the IC50 was 10000 to 100000 nM.
In the case of `CC(=O)Nc1cc(NC(=O)c2cc(F)cc(C(F)(F)F)c2)c2c(c1)C(=O)NC2c1cc(F)ccc1Cl` (stereo not shown) [Compound I-423], the IC50 was ≤ 100 nM.
`O=C(Nc1cccc2c1C(c1ccc(C3CC3)cc1Cl)NC2=O)c1cc(F)cc(C(F)(F)F)c1` (stereo not shown) [Compound I-424] gave an IC50 of 1000 to 10000 nM.
Turning to `Cn1cc(-c2ccc(C3NC(=O)c4cccc(NC(=O)c5cc(F)cc(C(F)(F)F)c5)c43)c(Cl)c2)cn1` (stereo not shown) [Compound I-425], the IC50 lay in the range of 10000 to 100000 nM.
With `CC(C)(C(=O)O)c1cc(NC(=O)c2cc(F)cc(C(F)(F)F)c2)c2c(c1)C(=O)NC2c1cc(F)ccc1Cl` (stereo not shown) [Compound I-427], the IC50 was 100 to 500 nM.
The same measure for `O=C(Nc1cccc2c1C(c1cc(O)ccc1Cl)NC2=O)c1cc(F)cc(C(F)(F)F)c1` (stereo not shown) [Compound I-428]: 1000 to 10000 nM; for `Nc1ccc(Cl)c(C2NC(=O)c3cccc(NC(=O)c4cc(F)cc(C(F)(F)F)c4)c32)c1` (stereo not shown) [Compound I-429]: 1000 to 10000 nM.
As for `O=C1NC(c2cc(F)ccc2Cl)c2c(NC(=O)N3CCC(C(F)(F)F)CC3)cc(Br)cc21` (stereo not shown) [Compound I-430], the IC50 fell in the range of 1000 to 10000 nM.
As to `O=C(Nc1cccc2c1C(c1cccc3ccccc13)NC2=O)c1cc(F)cc(C(F)(F)F)c1` (stereo not shown) [Compound I-431], the IC50 was in the range of 1000 to 10000 nM.
`Cc1ccccc1C1NC(=O)c2cccc(NC(=O)N3CCCCC3)c21` (stereo not shown) [Compound I-433]: the IC50 fell in the range of 10000 to 100000 nM.
The same measure for `Cc1ccccc1C1NC(=O)c2c(CCO)ccc(NC(=O)c3nsc4ccccc34)c21` (stereo not shown) [Compound I-434]: ≤ 100 nM; for `Cc1ccccc1C1NC(=O)c2cccc(NC(=O)c3cccc(C(F)(F)F)c3)c21` (stereo not shown) [Compound I-435]: 1000 to 10000 nM.
As to `COc1cc(C(=O)Nc2cc(Br)cc3c2C(c2cc(F)ccc2C(F)F)NC3=O)cc(F)c1F` (stereo not shown) [Compound I-436], the IC50 lay within 100 to 500 nM.
`CC(C)(O)Cc1cc(NC(=O)c2cc(F)cc(C(F)(F)F)c2)c2c(c1)C(=O)NC2c1cc(F)ccc1Cl` (stereo not shown) [Compound I-437]: the IC50 was ≤ 100 nM.
The same measure for `CNC(=O)Cc1cc(NC(=O)c2cc(F)cc(C(F)(F)F)c2)c2c(c1)C(=O)NC2c1cc(F)ccc1Cl` (stereo not shown) [Compound I-438]: ≤ 100 nM; for `CC(C)(O)c1cc(NC(=O)c2cc(F)cc(C(F)(F)F)c2)c2c(c1)C(=O)NC2c1ccccc1Cl` (stereo not shown) [Compound I-439]: 100 to 500 nM; for `O=C(Nc1cnc(NC2COC2)c2c1C(c1cc(F)ccc1Cl)NC2=O)c1cc(F)cc(C(F)(F)F)c1` (stereo not shown) [Compound I-440]: 1000 to 10000 nM.
As for `O=C(Nc1cc(N2CCC2)nc2c1C(c1cc(F)ccc1Cl)NC2=O)c1cc(F)cc(C(F)(F)F)c1` (stereo not shown) [Compound I-441], the half-maximal inhibitory concentration (IC50) is ≤ 100 nM.
As for `CC(C)CC1NC(=O)c2cccc(NC(=O)c3cc(F)cc(C(F)(F)F)c3)c21` (stereo not shown) [Compound I-442], the IC50 is 1000 to 10000 nM.
With `N#CC1CN(c2cc(NC(=O)c3cc(F)cc(C(F)(F)F)c3)c3c(n2)C(=O)NC3c2cc(F)ccc2Cl)C1` (stereo not shown) [Compound I-443] the figure was ≤ 100 nM.
With `O=C(Nc1cc(CNCc2ccccc2)nc2c1C(c1cc(F)ccc1Cl)NC2=O)c1cc(F)cc(C(F)(F)F)c1` (stereo not shown) [Compound I-444] the figure was 100 to 500 nM; with `Cc1ccccc1C1NC(=O)c2cccc(NC(=O)c3nsc4ccc(-c5cnn(C)c5)cc34)c21` (stereo not shown) [Compound I-445], 1000 to 10000 nM.
The same measure for `O=C(Nc1cccc2c1C(c1cc(Br)ccc1Cl)NC2=O)c1cc(F)cc(C(F)(F)F)c1` (stereo not shown) [Compound I-446]: ≤ 100 nM; for `O=C(Nc1cccc2c1C(c1cc(F)ccc1Cl)NC2=O)c1cc(Br)cc(C(F)(F)F)c1` (stereo not shown) [Compound I-447]: 1000 to 10000 nM.
Compound `O=C(Nc1cccc2c1C(c1cc(F)ccc1Cl)NC2=O)c1cc(O)cc(C(F)(F)F)c1` (stereo not shown) [Compound I-448] registered an IC50 of 500 to 1000 nM.
For the compound `Nc1cc(C(=O)Nc2cccc3c2C(c2cc(F)ccc2Cl)NC3=O)cc(C(F)(F)F)c1` (stereo not shown) [Compound I-449], the IC50 is 1000 to 10000 nM.
On to `O=C(Nc1cccc2c1C(c1cc(F)ccc1Cl)NC2=O)c1cc(B(O)O)cc(C(F)(F)F)c1` (stereo not shown) [Compound I-450], for which the IC50 was 1000 to 10000 nM.
Regarding `Cc1ccccc1C1NC(=O)c2cccc(NC(=O)c3ccsn3)c21` (stereo not shown) [Compound I-451], the IC50 was 10000 to 100000 nM.
With `Cc1ccccc1C1NC(=O)c2cccc(NC(=O)c3ncsc3Br)c21` (stereo not shown) [Compound I-452] the figure was 1000 to 10000 nM.
As to `Cc1ccccc1C1NC(=O)c2cccc(NC(=O)c3cc(Br)sn3)c21` (stereo not shown) [Compound I-453], the IC50 was 10000 to 100000 nM.
The same measure for `Cc1ccccc1C1NC(=O)c2cccc(NC(=O)c3cc(F)cc4cc[nH]c34)c21` (stereo not shown) [Compound I-454]: 100 to 500 nM.
In turn, `O=C(Nc1cc(-c2cccnc2)nc2c1C(c1cc(F)ccc1Cl)NC2=O)c1cc(F)cc(Cl)c1` (stereo not shown) [Compound I-455] displayed an IC50 of 100 to 500 nM.
With `Cn1cc(-c2cc(NC(=O)c3cc(F)cc(Cl)c3)c3c(n2)C(=O)NC3c2cc(F)ccc2Cl)ccc1=O` (stereo not shown) [Compound I-456] the figure was ≤ 100 nM; with `Cc1ncc(-c2cc(NC(=O)c3cc(F)cc(Cl)c3)c3c(n2)C(=O)NC3c2cc(F)ccc2Cl)s1` (stereo not shown) [Compound I-457], ≤ 100 nM; with `O=C(Nc1cc(-c2ccncc2)nc2c1C(c1cc(F)ccc1Cl)NC2=O)c1cc(F)cc(Cl)c1` (stereo not shown) [Compound I-458], 100 to 500 nM.

(Values after US12581252B2, “Substituted pyrrolo[3,4-b]pyridines as PI3K-α inhibitors” (Relay Therapeutics, Inc., priority 2020, dated 2026).)
